Experimental data from patent US9605064B2, “Methods and compositions for treatment of skin disorders” (AbbVie Biotechnology Ltd, priority 2006, dated 2017).
“And” between values parts separate entries of the source, which are not always exact repeats. Identical values can stand only once. Marks after values point to notes of the source that are not given here.

System: patients with moderate to severe chronic plaque psoriasis
Assay: PASI response, Phase II 12-week placebo-controlled trial with 48-week extension
Format: in vivo, human
Settings: for Number of Patients Who Qualified for Dosage Escalation: 40 mg eow (n = 12); for PASI 50 (% patients) After Dose Escalation / PASI 75 (% patients) After Dose Escalation / PASI 90 (% patients) After Dose Escalation: escalation from eow to weekly dosing
From the text: Efficacy outcome measures included PASI and PGA.
The two primary clinical outcome measures used in this study were the psoriasis area and severity index (PASI) and the physician's global assessment (PGA). PASI improvement of greater than or equal to 75% (used as an endpoint in psoriasis clinical trials) at week 12 was the primary efficacy outcome measure for this study. PASI is a composite index indicating severity for three main signs of psoriatic plaques (erythema, scaling, and thickness), weighted by the amount of coverage of these plaques in four main body areas, i.e., head, trunk, upper extremities, and lower extremities. PASI scores, which range from 0-72, with higher scores indicating greater severity, were assessed at screening, baseline, week 1, week 2, week 4, week 8, week 12/early termination, and follow-up.
Skin and safety outcomes were assessed up to Week 60.
Analytical methods included the following: • Analyses of clinical data were performed on a modified intention-to-treat population (ITT). […] Patients whose dosages were increased on or after Week 24 were considered non-responders; • Patients with similar percentage PASI improvement across treatment arms were pooled into four strata: PASI<50, PASI 50-74, PASI 75-99, and PASI 100; and • Week-60 distribution of DLQI scores, mean DLQI scores, and mean change in DLQI from Week 0-60 were calculated within each stratum.
Frequently used as an endpoint in psoriasis clinical trials, the PASI [25] was the primary efficacy outcome in this trial. PASI is a composite index indicating the severity of the three main signs of psoriatic plaques (i.e., erythema, scaling, and thickness) and is weighted by the amount of coverage of these plaques in the four main body areas (head, trunk, upper extremities, and lower extremities). PASI scores range from 0-72, with higher scores indicating greater disease severity. PASI was assessed at screening and baseline, at Weeks 1, 2, 4, 8, and 12/Early Termination, and at the final follow-up visit.
At week 12, placebo patients received an 80-mg loading dose, then 40 mg every other week. […] Patients who receive the rescue therapy were considered non-responders in this analysis.

[1] = 40 mg eow, Week 60, modified ITT, NRI
[2] = 40 mg weekly, Week 60, modified ITT, NRI
[3] = (placebo→eow+eow) group, week 60, observed analysis
[4] = Efficacy at Weeks 24-60 (n = 22)
[5] = Week 12, adalimumab 40 mg eow, modified ITT, NRI
[6] = Week 12, adalimumab 40 mg weekly, modified ITT, NRI
[7] = Week 24, adalimumab 40 mg eow, modified ITT, NRI
[8] = Week 24, adalimumab 40 mg weekly, modified ITT, NRI
[9] = Week 24, placebo/adalimumab 40 mg eow (adalimumab from Week 12), modified ITT, NRI
[10] = Week 36, adalimumab 40 mg eow, modified ITT, NRI
[11] = Week 36, adalimumab 40 mg weekly, modified ITT, NRI
[12] = Week 36, placebo/adalimumab 40 mg eow (adalimumab from Week 12), modified ITT, NRI
[13] = Week 60, adalimumab 40 mg eow, modified ITT, NRI

Adalimumab: a human anti-TNF mAb, described in U.S. Pat. No. 6,090,382 as D2E7 (HUMIRA, Abbott Laboratories)
Number of Patients Who Qualified for Dosage Escalation (Week 24): 9 | Number of Patients Who Qualified for Dosage Escalation (Week 28): 1 | Number of Patients Who Qualified for Dosage Escalation (Week 32): 0 | Number of Patients Who Qualified for Dosage Escalation (Week 44): 1 | Number of Patients Who Qualified for Dosage Escalation (Week 52): 0 | Number of Patients Who Qualified for Dosage Escalation (Week 60): 1 | patients with sustained, clinically significant improvement (40 mg eow dosing): ~80% | Overall PASI 75 response rate (40 mg eow, Week 12, modified ITT, NRI): 53* % of Patients | Overall PASI 75 response rate (40 mg eow, Week 24, modified ITT, NRI): 64 % of Patients | Overall PASI 75 response rate (40 mg eow, Week 36, modified ITT, NRI): 64 % of Patients | Overall PASI 75 response rate [1]: 58 % of Patients and 56 % of Patients | PASI 50 response rate [1]: 64 % Patients | PASI 90 response rate [1]: 33 % Patients | PASI 100 response rate [1]: 16 % Patients | Overall PASI 75 response rate (40 mg eow, Week 60, modified ITT, NRI, listed as adalimumab): 58 % of Patients | mean percentage PASI improvement (40 mg every other week dosage of placebo/adalimumab, week 60): 69% | mean percentage PASI improvement (40 mg of adalimumab alone, on a weekly basis, week 60): 69% | Overall PASI 75 response rate (40 mg weekly, Week 12, modified ITT, NRI): 80* % of Patients | Overall PASI 75 response rate (40 mg weekly, Week 24, modified ITT, NRI): 72 % of Patients | Overall PASI 75 response rate (40 mg weekly, Week 36, modified ITT, NRI): 68 % of Patients | Overall PASI 75 response rate [2]: 64 % of Patients | PASI 50 response rate [2]: 66 % Patients | PASI 90 response rate [2]: 48 % Patients | PASI 100 response rate [2]: 26 % Patients | mean percentage PASI improvement (40 mg weekly, week 60): 84% | PASI 75-99 response rate [3]: 38 | PASI 100 response rate [3]: 17 | PASI 75 Response at Week 60, patients eligible for dose escalation (Adalimumab 40 mg eow (n = 9)): 22% (2/9) | PASI 50 (% patients) After Dose Escalation (Efficacy at Week 60 (n = 22)): 36% | PASI 75 (% patients) After Dose Escalation (Efficacy at Week 60 (n = 22)): 18% | PASI 90 (% patients) After Dose Escalation (Efficacy at Week 60 (n = 22)): 0% | PASI 50 (% patients) After Dose Escalation [4]: 55% | PASI 75 (% patients) After Dose Escalation [4]: 23% | PASI 90 (% patients) After Dose Escalation [4]: 5% | PASI 75 Response at Week 60, patients eligible for dose escalation (Placebo/Adalimumab 40 mg eow (n = 13)): 15% (2/13) | Percentages of Patients with > PASI 75 Response (Week 12, 40 mg eow (Table 79)): 53% | Percentages of Patients with > PASI 75 Response (Week 12, 40 mg weekly (Table 79)): 80% | Percentage of patients who achieved PASI 100 (Week 12, adalimumab 40 mg eow, NRI): 11* % | PASI 50 (% patients) [5]: 76% | Percentage of patients who achieved PASI 75 [5]: 53% | Percentage of patients who achieved PASI 90 [5]: 24% | Percentage of patients who achieved PASI 100 (Week 12, adalimumab 40 mg weekly, NRI): 26* % | PASI 50 (% patients) [6]: 88% | Percentage of patients who achieved PASI 75 [6]: 80% | Percentage of patients who achieved PASI 90 [6]: 48% | Patients Eligible for Dose Escalation (<PASI 50 response), number (Week 24, Adalimumab 40 mg eow (n = 9)): 5 | Patients Eligible for Dose Escalation (<PASI 50 response), number (Week 24, Placebo/Adalimumab 40 mg eow (n = 13)): 5 | Percentage of patients who achieved PASI 100 (Week 24, adalimumab 40 mg eow, NRI): 13% | Percentage of patients who achieved PASI 75 [7]: 64% | Percentage of patients who achieved PASI 90 [7]: 42% | Percentage of patients who achieved PASI 100 (Week 24, adalimumab 40 mg weekly, NRI): 24% | Percentage of patients who achieved PASI 75 [8]: 72% | Percentage of patients who achieved PASI 90 [8]: 62% | Percentage of patients who achieved PASI 100 (Week 24, placebo/adalimumab 40 mg eow (adalimumab from Week 12), NRI): 11% | Percentage of patients who achieved PASI 75 [9]: 55% | Percentage of patients who achieved PASI 90 [9]: 32% | Patients Eligible for Dose Escalation (<PASI 50 response), number (Week 28, Adalimumab 40 mg eow (n = 9)): 1 | Patients Eligible for Dose Escalation (<PASI 50 response), number (Week 28, Placebo/Adalimumab 40 mg eow (n = 13)): 2 | Patients Eligible for Dose Escalation (<PASI 50 response), number (Week 32, Adalimumab 40 mg eow (n = 9)): 0 | Patients Eligible for Dose Escalation (<PASI 50 response), number (Week 32, Placebo/Adalimumab 40 mg eow (n = 13)): 2 | Percentage of patients who achieved PASI 100 (Week 36, adalimumab 40 mg eow, NRI): 22% | Percentage of patients who achieved PASI 75 [10]: 64% | Percentage of patients who achieved PASI 90 [10]: 49% | Percentage of patients who achieved PASI 100 (Week 36, adalimumab 40 mg weekly, NRI): 36% | Percentage of patients who achieved PASI 75 [11]: 68% | Percentage of patients who achieved PASI 90 [11]: 58% | Percentage of patients who achieved PASI 100 (Week 36, placebo/adalimumab 40 mg eow (adalimumab from Week 12), NRI): 19% | Percentage of patients who achieved PASI 75 [12]: 62% | Percentage of patients who achieved PASI 90 [12]: 43% | Patients Eligible for Dose Escalation (<PASI 50 response), number (Week 44, Adalimumab 40 mg eow (n = 9)): 1 | Patients Eligible for Dose Escalation (<PASI 50 response), number (Week 44, Placebo/Adalimumab 40 mg eow (n = 13)): 1 | Patients Eligible for Dose Escalation (<PASI 50 response), number (Week 52, Adalimumab 40 mg eow (n = 9)): 0 | Patients Eligible for Dose Escalation (<PASI 50 response), number (Week 52, Placebo/Adalimumab 40 mg eow (n = 13)): 3 | Patients Eligible for Dose Escalation (<PASI 50 response), number (Week 60, Adalimumab 40 mg eow (n = 9)): 2 | Patients Eligible for Dose Escalation (<PASI 50 response), number (Week 60, Placebo/Adalimumab 40 mg eow (n = 13)): 0 | Percentage of patients who achieved PASI 100 (Week 60, adalimumab 40 mg eow, NRI): 16% | PASI 50 (% patients) [13]: 67% | Percentage of patients who achieved PASI 75 [13]: 58% | Percentage of patients who achieved PASI 90 [13]: 33% | Percentage of patients who achieved PASI 100 (Week 60, adalimumab 40 mg weekly, NRI): 26%
